In US8022056B2, “Compositions and methods for the treatment of cancer” (Tautatis, Inc, priority 2006, dated 2011):

What was measured:
[1] = tested on: target kinases versus GSK3, PKC and PKA; assay: Kinase potency and selectivity profile under identical kinase assay conditions; assay type: biochemical
Description: Relative to the compounds disclosed in WO00/01699 and WO04/048384, compounds of the structural formula 1-4 have a higher degree of selectivity in favor of several antiproliferative kinases, as exemplified for the representative compound 1 and directly related compounds 7 of WO04/048384 and 8-9 of WO00/01699, containing the general scaffold of 10, respectively.

ERK2 = ERK2 (Homo sapiens, UniProt P28482); assay: Kinase inhibition under standard conditions, ERK2; assay type: biochemical
Chain of ERK2 (P28482 whole entry, species assumed): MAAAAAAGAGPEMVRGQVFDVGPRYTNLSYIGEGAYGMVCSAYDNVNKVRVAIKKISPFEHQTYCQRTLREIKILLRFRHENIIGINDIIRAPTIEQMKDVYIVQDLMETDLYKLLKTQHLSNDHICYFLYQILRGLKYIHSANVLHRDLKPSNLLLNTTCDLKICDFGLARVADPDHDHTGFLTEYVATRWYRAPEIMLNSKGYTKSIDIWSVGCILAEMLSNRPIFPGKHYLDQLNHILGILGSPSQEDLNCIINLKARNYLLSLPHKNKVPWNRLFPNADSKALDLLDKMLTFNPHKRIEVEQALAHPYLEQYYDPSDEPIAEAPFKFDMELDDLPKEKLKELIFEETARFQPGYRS

CDK1 = CDK1 (Homo sapiens, UniProt P06493); assay: Kinase inhibition under standard conditions, CDK1; assay type: biochemical
Chain of CDK1 (P06493 whole entry, species assumed): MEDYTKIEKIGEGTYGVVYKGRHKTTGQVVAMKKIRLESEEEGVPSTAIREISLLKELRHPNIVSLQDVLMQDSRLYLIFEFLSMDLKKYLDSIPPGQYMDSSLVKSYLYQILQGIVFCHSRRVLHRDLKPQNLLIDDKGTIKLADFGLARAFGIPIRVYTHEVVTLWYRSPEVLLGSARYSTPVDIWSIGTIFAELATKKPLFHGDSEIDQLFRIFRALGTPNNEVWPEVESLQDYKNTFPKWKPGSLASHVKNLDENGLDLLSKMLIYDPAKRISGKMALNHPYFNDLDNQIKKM
Chain of CDK1 (P14635 whole entry partner, species assumed): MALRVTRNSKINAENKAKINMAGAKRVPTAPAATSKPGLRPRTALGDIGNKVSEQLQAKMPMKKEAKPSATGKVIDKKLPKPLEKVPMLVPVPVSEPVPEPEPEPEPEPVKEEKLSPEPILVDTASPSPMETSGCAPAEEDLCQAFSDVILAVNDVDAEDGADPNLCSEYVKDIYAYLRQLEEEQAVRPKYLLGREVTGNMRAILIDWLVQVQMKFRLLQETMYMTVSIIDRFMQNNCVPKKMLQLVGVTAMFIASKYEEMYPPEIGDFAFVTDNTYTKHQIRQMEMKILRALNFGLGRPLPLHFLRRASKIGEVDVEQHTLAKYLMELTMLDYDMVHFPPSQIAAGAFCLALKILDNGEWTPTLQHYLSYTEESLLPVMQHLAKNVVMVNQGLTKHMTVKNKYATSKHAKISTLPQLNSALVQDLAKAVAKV

GSK3 = assay: Kinase inhibition under standard conditions, GSK3; assay type: biochemical
PKC = assay: Kinase inhibition under standard conditions, PKC; assay type: biochemical
PKA = assay: Kinase inhibition under standard conditions, PKA; assay type: biochemical
[2] = tested on: MDA-MB-231 breast cancer cell line; assay: Long-term growth inhibition, crystal violet staining; assay type: cell-based, human
Experimental: The human estrogen receptor and EGF receptor negative MDA-MB-231 (HTB 26) breast cancer cell line (obtained from ATCC, Rockville, USA) were cultured in McCoy's 5A medium containing L-glutamine, 2.2 g/l NaHCO3 and 5% fetal calf serum. Cells were maintained in a water saturated atmosphere (95% air/5% carbon dioxide) at 37° C. in 75-cm^2 culture flasks, and were serially passaged following trypsinization using 0.05% trypsin/0.02% EDTA.
(§1) For proliferation assays tumor cell suspensions (100 μl/well) were seeded into 96-well flat bottomed microtitration plates at a density of ca. 15 cells/microscopic field (magnification 320×). After 2-3 days the culture medium was removed by suction and replaced by fresh medium (200 μl/well) containing varying concentrations of the compound of the formula 1 or vehicle (0.5% DMSO). Compound 1 was added as […] concentrated feed solutions. On every plate 16 wells served as controls and 16 wells were used per concentration of 1. After various times of incubation the cells were fixed with glutardialdehyde and stored in a refrigerator. At the end of the assay all plates were processed simultaneously (staining with 0.02% aqueous crystal violet solution (100 μl/well). Excess dye was removed by rinsing the trays with water for 20 min. The stain bound by the cells was redissolved in 70% ethanol (180 μl/well) while shaking the microplates for about 3 hours. Absorbance (proportional to cell mass) was measured at 578 nm using a BIOTEK 309 Autoreader. The results (mean values±standard deviation) were plotted as growth curves.

[3] = tested on: HT29 colon cancer cell line; assay: as above; assay type: cell-based, human; conditions: 10 nM
Experimental: as §1
The HT29 human colon cancer cell line (obtained from ATCC, Rockville, USA) was cultured as above. Treatment with the compound of the formula 1 and analysis of growth inhibition was performed analogous to Example 3.

[4] = tested on: U373 glioblastoma cell line; assay: as above; assay type: cell-based, human; conditions: U373, over a week
Experimental: as §1
The EGF-receptor independent U373 Human Glioblastoma cell line (obtained from ATCC, Rockville, USA) was cultured as above. Treatment with the compound of the formula 1 and analysis of growth inhibition was performed analogous to Example 3.

[5] = Propper et al.; cited from earlier work
[6] = tested on: breast cancer tumor cell lines; conditions: large panel, Konecny et al.; cited from earlier work

For `C[C@]12O[C@H](C[C@]1(N)C(N)=O)n1c3ccccc3c3c4c(c5c6ccccc6n2c5c31)CNC4=O` [Compound 2], which “potency and selectivity profile compared with 1” value (shortened to “potency and selectivity profile”) [1] is on record?
The value was “virtually identical potency and selectivity profile as 1”.

For `CNC(=O)[C@@]1(N)C[C@H]2O[C@]1(C)n1c3ccccc3c3c4c(c5c6ccccc6n2c5c31)C(=O)NC4=O` [Compound 3], which “potency and selectivity profile” value [1] is on record?
The value was “virtually identical potency and selectivity profile as 1”.

Which “potency and selectivity profile” value [1] does the source give for `C[C@]12O[C@H](C[C@]1(N)C(N)=O)n1c3ccccc3c3c4c(c5c6ccccc6n2c5c31)C(=O)NC4=O` [Compound 4] here?
Its value is “virtually identical potency and selectivity profile as 1”.

Which IC50 (ERK2) does the source give for `COC(=O)[C@@]1(N)CC2OC1(C)n1c3ccccc3c3c4c(c5c6ccccc6n2c5c31)C(=O)NC4` (some centres unmarked) [Compound 6] here?
The IC50 was 870 nM.

And the IC50 (CDK1)?
The IC50 was 650 nM.

What about the IC50 (GSK3) of the same compound?
The IC50 was over 10000 nM.

And the IC50 (PKC)?
Its IC50 is over 10000 nM.

What about the IC50 (PKA) of the same compound?
Its IC50 is over 10000 nM.

And the “growth of MDA-MB-231 cells” value ([2]; 10 nM, 1 week of exposure)?
Its value is “virtually ineffective”.

And the “concentration required for a similar effect as 10 nM of 1” value ([2]; MDA-MB-231, 1 week)?
Its value is “ten-fold higher concentration”.

What about the “proliferation of HT29 cells” value [3] of the same compound?
Its value is “completely ineffective”.

And the “concentration required for a similar effect as 10 nM of 1” value [4]?
Its value is “ten-fold higher concentration”.

With `CNC(=O)[C@@]1(N)CC2CC1n1c3ccccc3c3c4c(c5c6ccccc6n2c5c31)C(=O)NC4` (some centres unmarked) [Compound 7] as the compound, how does the IC50 (ERK2) read?
The IC50 was 600 nM.

And the IC50 (CDK1)?
Its IC50 is 180 nM.

And the IC50 (GSK3)?
The IC50 was 350 nM.

What about the IC50 (PKC) of the same compound?
The IC50 was 260 nM.

And the IC50 (PKA)?
Its IC50 is 440 nM.

What does the source list for `CNC(=O)[C@@]1(O)CC2CC1n1c3ccccc3c3c4c(c5c6ccccc6n2c5c31)C(=O)NC4=O` (some centres unmarked) [Compound 8]?
IC50 (ERK2): 120 nM; IC50 (CDK1): 63 nM; IC50 (GSK3): 37 nM; IC50 (PKC): 120 nM; IC50 (PKA): 78 nM

For `CNC(=O)[C@@]1(O)CC2CC1n1c3ccccc3c3c4c(c5c6ccccc6n2c5c31)C(=O)NC4` (some centres unmarked) [Compound 9], which IC50 (ERK2) is on record?
The IC50 was 480 nM.

What about the IC50 (CDK1) of the same compound?
Its IC50 is 110 nM.

And the IC50 (GSK3)?
Its IC50 is 400 nM.

And the IC50 (PKC)?
The IC50 was 210 nM.

And the IC50 (PKA)?
The IC50 was 550 nM.

Which human serum binding [5] does the source give for `CO[C@@H]1[C@H](N(C)C(=O)c2ccccc2)C[C@H]2O[C@]1(C)n1c3ccccc3c3c4c(c5c6ccccc6n2c5c31)C(=O)NC4` [PKC-412] here?
Its human serum binding is “extreme human serum binding”.

Which “share of breast cancer tumor cell lines with growth inhibitory activity” value [6] does the source give for `CS(=O)(=O)CCNCc1ccc(-c2ccc3ncnc(Nc4ccc(OCc5cccc(F)c5)c(Cl)c4)c3c2)o1` [Tykerb] here?
Its value is “about 20%”.
